Laboratory results taken from US20240207258A1, “HETEROCYCLIC PDK1 INHIBITORS FOR USE TO TREAT CANCER” (Viracta Therapeutics, Inc., priority 2015, published 2024).

Assays:
C1498 = assay: MTS cell proliferation assay, C1498; format: cell-based, murine; details: Mus musculus; for EC50: C1498, 72 hr, read-out: MTS proliferation assay
Experimental: Cell proliferation was measured using the CellTiter 96 Aqueous Non-Radioactive Cell Proliferation Assay (Promega). […] MTS is bioreduced by cells into a formazan product that is soluble in tissue culture medium. The absorbance of the formazan product at 490 nm can be measured directly from assay plates without additional processing. The quantity of formazan product as measured by the amount of 490 nm absorbance is directly proportional to the number of living cells in culture. Cells were seeded into 96-well or 384-well clear plates in a volume of 200 μL (96-well) or 50 μL (384-well) at optimized densities ranging from 1,000 to 40,000 cells per well for 96-well plates or 1,200 to 25,000 cells per well for 384-well plates depending on cell-line. After 4-6 hr recovery, serially diluted compounds in DMSO were added to the cells using (0.1% v/v final DMSO concentration). Cells were then grown at 37° C. in a humidified incubator with 5% CO2 for 72 hr. A 20:1 [3-(4,5-dimethylthiazol-2-yl)-5-(3-carboxymethoxyphenyl)-2-(4-sulfophenyl)-2H-tetrazolium](MTS):phenazine methosulfate (PMS) solution in DPBS was made immediately before use, added to each well, and cells were incubated for 1.5 hr at 37° C. The absorbance at 490 nm was then measured using a platereader. Absorbance values were normalized as percent of control (cells incubated in the presence of 0.1% v/v DMSO). Sigmoidal dose-response curves were plotted using log(inhibitor) vs. response—Variable slope (four parameters) model with a top value constrained to 100% (GraphPad Prism version 6.00 for Windows, GraphPad Software, La Jolla California USA). […] To determine potential of compounds of the invention to affect viability of hematological cancers, cell lines representing various tumor types were selected and tested. […] In addition, two murine cell lines were tested: A20 […].

[1] = biological target: T1, Full-length phosphorylated PDK1 (Homo sapiens, UniProt O15530); assay: Fluorescence polarization PIF-tide binding assay; details: PDK1 saturating amounts of compound, FIG. 13C
T1 sequence (O15530 1-556): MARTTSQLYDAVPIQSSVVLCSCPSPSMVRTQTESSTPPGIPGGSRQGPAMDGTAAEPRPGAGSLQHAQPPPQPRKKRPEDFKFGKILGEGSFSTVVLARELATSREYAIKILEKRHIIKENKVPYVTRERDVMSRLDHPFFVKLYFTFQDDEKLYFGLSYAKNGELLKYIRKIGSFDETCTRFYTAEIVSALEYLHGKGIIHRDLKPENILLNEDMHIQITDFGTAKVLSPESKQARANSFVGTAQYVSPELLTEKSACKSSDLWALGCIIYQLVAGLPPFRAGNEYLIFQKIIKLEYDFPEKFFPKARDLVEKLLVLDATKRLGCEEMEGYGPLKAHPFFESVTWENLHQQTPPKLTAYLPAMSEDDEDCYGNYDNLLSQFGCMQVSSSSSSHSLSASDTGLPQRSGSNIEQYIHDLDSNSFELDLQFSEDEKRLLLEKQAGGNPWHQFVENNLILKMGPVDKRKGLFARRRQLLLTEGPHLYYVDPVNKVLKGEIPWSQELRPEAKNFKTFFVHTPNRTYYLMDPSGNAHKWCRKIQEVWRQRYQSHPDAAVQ

A20 = assay: MTS cell proliferation assay, A20; format: cell-based, murine; details: Mus musculus; A20, 72 hr
Experimental: (§1) Cell proliferation was measured using the CellTiter 96 Aqueous Non-Radioactive Cell Proliferation Assay (Promega). The CellTiter 96® AQueous Assay is composed of solutions of a tetrazolium compound [3-(4,5-dimethylthiazol-2-yl)-5-(3-carboxymethoxyphenyl)-2-(4-sulfophenyl)-2H-tetrazolium, inner salt; MTS] and an electron coupling reagent (phenazine methosulfate) PMS. MTS is bioreduced by cells into a formazan product that is soluble in tissue culture medium. The absorbance of the formazan product at 490 nm can be measured directly from assay plates without additional processing. The quantity of formazan product as measured by the amount of 490 nm absorbance is directly proportional to the number of living cells in culture. Cells were seeded into 96-well or 384-well clear plates in a volume of 200 μL (96-well) or 50 μL (384-well) at optimized densities ranging from 1,000 to 40,000 cells per well for 96-well plates or 1,200 to 25,000 cells per well for 384-well plates depending on cell-line. After 4-6 hr recovery, serially diluted compounds in DMSO were added to the cells using (0.1% v/v final DMSO concentration). Cells were then grown at 37° C. in a humidified incubator with 5% CO2 for 72 hr. A 20:1 [3-(4,5-dimethylthiazol-2-yl)-5-(3-carboxymethoxyphenyl)-2-(4-sulfophenyl)-2H-tetrazolium](MTS):phenazine methosulfate (PMS) solution in DPBS was made immediately before use, added to each well, and cells were incubated for 1.5 hr at 37° C. The absorbance at 490 nm was then measured using a platereader. Absorbance values were normalized as percent of control (cells incubated in the presence of 0.1% v/v DMSO). Sigmoidal dose-response curves were plotted using log(inhibitor) vs. response—Variable slope (four parameters) model with a top value constrained to 100% (GraphPad Prism version 6.00 for Windows, GraphPad Software, La Jolla California USA). […] Curves for compounds that reached a plateau were matched exactly to the measurement points. […] To determine potential of compounds of the invention to affect viability of hematological cancers, cell lines representing various tumor types were selected and tested. Human cell lines tested were: MOLM-13 (acute myeloid leukemia (AML)), MV4-11 (AML), U-2932 (ABC-diffuse large B cell lymphoma), U-937 (histiocytic lymphoma), U-266 (multiple myeloma), RPMI-8226 (multiple myeloma), CMK (megakaryoblastic cell line), SU-DHL-4 (GCB-diffuse large B cell lymphoma), KG1 (AML), Mec-1 (chronic B-cell leukemia), MOLM-16 (AML), Jeko (B-cell lymphoma), WSU-DLCL2 (B-cell lymphoma), JJN3 (plasma cell leukemia), SU-DHL-6 (GCB-diffuse large B cell lymphoma), and Z-138 (mantle cell lymphoma). In addition, two murine cell lines were tested: A20 […].

RPMI-8226 = assay: MTS cell proliferation assay, RPMI-8226; format: cell-based; details: Homo sapiens; RPMI-8226, 72 hr
Experimental: as §1

C[C@H](NC(=O)c1nc(C#N)cnc1NCc1ccc(-c2cnc3[nH]nc(N)c3n2)cc1)c1ccc(F)c(F)c1 [Compound 1, 3-[4-(3-Amino-1H-pyrazolo[3,4-b]pyrazin-5-yl)-benzylamino]-6-cyano-pyrazine-2-carboxylic acid [1-(3,4-difluoro-phenyl)-ethyl]-amide]
EC50 (C1498): 53 nM | PIF-tide binding to PDK1 (fluorescence polarization, words) [1]: significant inhibition of PIF-tide binding | EC50 (A20): 156 nM | EC50 (RPMI-8226): 174 nM

CNc1n[nH]c2ncc(-c3ccc(CNc4ncc(C#N)nc4C(=O)N[C@@H](C)c4ccc(F)c(F)c4)cc3)cc12 [Compound 2, 6-Cyano-3-[4-(3-methylamino-1H-pyrazolo[3,4-b]pyridin-5-yl)-benzylamino]-pyrazine-2-carboxylic acid [1-(3,4-difluoro-phenyl)-ethyl]-amide]
inhibition at 0.2 µM (C1498; C1498, 200 nM, read-out: growth inhibition): 80% | EC50 (C1498): 45 nM | PIF-tide binding to PDK1 (fluorescence polarization, words) [1]: significant inhibition of PIF-tide binding | EC50 (A20): 114 nM | EC50 (RPMI-8226): 163 nM
